Assay results reported in publication PMC6136390, “Coptisine-induced inhibition of Helicobacter pylori: elucidation of specific mechanisms by probing urease active site and its maturation process” (Journal of Enzyme Inhibition and Medicinal Chemistry, 2018).
≈ marks a conversion by molar mass, not a printed value. Read-outs that look alike come from different tables or passages of the source.

What was measured:
H. pylori strains = experiment: Minimal inhibitory concentration assay (agar dilution); assay type: cell-based, Helicobacter pylori; settings: Helicobacter pylori, NCTC11637; standard strain NCTC 11637, pH 7.2; read-out: MIC
Source text: Fourteen H. pylori strains were used in this study. NCTC 11637 and NCTC 26695 strains were purchased from American Type Culture Collection. Sydney Strain-1 (SS1) was kindly provided by Prof. Richard Ferrero of Monash University, Australia. Clinical isolate ICDC 111001 was provided by Prof. Zhang Jian-zhong of the Chinese Center for Disease Control and Prevention, China. Ten clinical isolates (Hp1868, Hp1869, Hp1870, Hp1871, Hp1872, Hp1873, Hp1874, Hp1875, Hp1876, and Hp1877) were obtained from Renji Hospital, Shanghai Jiaotong University.
(§1) All strains were cultured in Columbia agar base containing 7% sheep blood at 37 °C in a micro-aerophilic environment (5% O2, 10% CO2, and 85% N2). After 3 days, H. pylori was scraped and suspended in phosphate buffered saline (PBS). Turbidimetry was employed to adjust the concentrations of different H. pylori strains (turbidity equivalent to 1.0 McFarland standard). Crude HPU was obtained according to the method described by Matsubara et al.[42]
In this study, different concentrations (12.5, 25, 50, and 100 μg/mL) of berberine, palmatine, epiberberine, jatrorrhizine, and coptisine were used to evaluate antimicrobial activity against the standard H. pylori strain NCTC 11637. The agar dilution method was then used to analyse the antibacterial effects of coptisine against two H. pylori standard strains (SS1 and NCTC 26695) and eleven clinical isolates (ICDC 111001, HP 1868, HP 1869, HP 1870, HP 1871, HP 1872, HP 1873, HP 1874, HP 1875, HP 1876, and HP 1877). In this assay, 100 μL of H. pylori suspension (McFarland = 1.0) was added to the test compound-containing or DMSO-containing (control) Columbia blood agar plate. CLR and MET were used as positive controls in this experiment. Minimum inhibitory concentration (MIC) was defined as the lowest concentration at which no strain growth was observed by visual examination after 3 days. This experiment was repeated twice.

H. pylori cells (SS1) = experiment: pH shock experiment in vivo (urea-dependent survival of H. pylori); assay type: cell-based, Helicobacter pylori; settings: 30 min; for surviving bacteria, pH =1: 100 mM HCl pH 1, 5 mM urea; for surviving bacteria, pH =7.2: PBS pH 7.2, 5 mM urea; for inhibition at 100 µM: Helicobacter pylori, 0.5 h
Description: H. pylori cells (SS1) were harvested, and the concentration was adjusted to Mc = 4 with saline. Then, bacterial samples were mixed with AHA (positive control, 5 mM) or one of the five alkaloids from Rhizoma Coptidis (coptisine, berberine, jatrorrhizine, epiberberine, and palmatine) in 100 mM HCl (pH = 1) or PBS (pH = 7.2) at 37 °C with or without 5 mM urea. After 30 min of incubation, bacteria were collected by centrifugation at 2000g for 10 min and resuspended in the same volume of PBS. A dilution series (1:1–1:10000) was made from the samples, and the dilutions were plated on solid agar for 5 days to form single colony. Samples from urea-free wells were used as controls. Results are expressed as CFU/mL; the experiment was repeated in triplicate. Inhibition rate was calculated using the following equation: Inhibition rate = (Urea group bacterial mean − X group bacterial mean)/Urea group bacterial mean ×100%, where X represents each experimental group.

urease = test system: urease; design: method as in PMID 26669678; settings: cited from earlier work
H. pylori urease (HPU) = target: T1, H. pylori urease (HPU) (Helicobacter pylori, UniProt P69996); experiment: Urease inhibition assay in vitro (modified Berthelot method); assay type: biochemical; settings: 20 min pre-incubation at 37 °C, 150 mM urea, pH 7.5; read-out: IC50 for HPU
T1 construct: Crude HPU was obtained according to the method described by Matsubara et al; endogenous in cells; host or cells: cultured Helicobacter pylori (strain not specified)
Description: as §1
This assay was performed using the modified Berthelot method (phenol-hypochlorite) in 96 well plates. At the beginning of each reaction, different concentrations of urease solution and 150 mM urea as a substrate were mixed in 20 mM HEPES buffer (pH 7.5) at 37 °C. After a 20-min reaction, urease activity was tested by measuring the concentration of ammonia produced by the reaction at 595 nm using the microplate reader (Thermo Fisher Multiskan FC, Instruments, Inc., USA) at ambient temperature. […] One unit (U) of urease activity was defined as the amount of urease required to catalyse 1 μmol urea per min. […]
Coptisine’s ability to inhibit urease activity was determined by measuring amounts of ammonia produced using the modified Berthelot method described above. […] Residual activity (RA %) for each assay was calculated using the following equation: RA % = (activity with inhibitors/activity without inhibitors) × 100%. […]

jack bean urease (JBU) = target: T2, jack bean urease (JBU) (Canavalia ensiformis, UniProt P07374); experiment: as above; assay type: biochemical; settings: 20 min pre-incubation at 37 °C, 150 mM urea, pH 7.5; read-out: IC50 for JBU
T2 construct: purchased Sigma Aldrich (Steineheim, Germany) type III (catalogue number not given)
Description: This assay was performed using the modified Berthelot method (phenol-hypochlorite) in 96 well plates. At the beginning of each reaction, different concentrations of urease solution and 150 mM urea as a substrate were mixed in 20 mM HEPES buffer (pH 7.5) at 37 °C. After a 20-min reaction, urease activity was tested by measuring the concentration of ammonia produced by the reaction at 595 nm using the microplate reader (Thermo Fisher Multiskan FC, Instruments, Inc., USA) at ambient temperature. […] One unit (U) of urease activity was defined as the amount of urease required to catalyse 1 μmol urea per min. These experiments were repeated in triplicate.
Coptisine’s ability to inhibit urease activity was determined by measuring amounts of ammonia produced using the modified Berthelot method described above. The assay mixture, which contained 200 μL of enzyme and 200 μL of coptisine solution (0.16–2.51 mM) in 200 μL of 20 mM HEPES buffer (pH 7.5), was incubated for 20 min at 37 °C in 96-well plates. The reaction was then initiated by adding urea solution (150 mM) to determine residual urease activity. AHA was used as a standard urease inhibitor. […] Residual activity (RA %) for each assay was calculated using the following equation: RA % = (activity with inhibitors/activity without inhibitors) × 100%. […]

[1] = 100 μM compound, pH 1, 5 mM urea
[2] = 100 μM compound, pH 7.2, 5 mM urea
[3] = 100 μM compound, pH 1, 5 mM urea, read-out: Inhibition rate, pH =1
[4] = 100 μM compound, pH 7.2, 5 mM urea, read-out: Inhibition rate, pH =7.2

T2 sequence (P07374 whole entry, looked up): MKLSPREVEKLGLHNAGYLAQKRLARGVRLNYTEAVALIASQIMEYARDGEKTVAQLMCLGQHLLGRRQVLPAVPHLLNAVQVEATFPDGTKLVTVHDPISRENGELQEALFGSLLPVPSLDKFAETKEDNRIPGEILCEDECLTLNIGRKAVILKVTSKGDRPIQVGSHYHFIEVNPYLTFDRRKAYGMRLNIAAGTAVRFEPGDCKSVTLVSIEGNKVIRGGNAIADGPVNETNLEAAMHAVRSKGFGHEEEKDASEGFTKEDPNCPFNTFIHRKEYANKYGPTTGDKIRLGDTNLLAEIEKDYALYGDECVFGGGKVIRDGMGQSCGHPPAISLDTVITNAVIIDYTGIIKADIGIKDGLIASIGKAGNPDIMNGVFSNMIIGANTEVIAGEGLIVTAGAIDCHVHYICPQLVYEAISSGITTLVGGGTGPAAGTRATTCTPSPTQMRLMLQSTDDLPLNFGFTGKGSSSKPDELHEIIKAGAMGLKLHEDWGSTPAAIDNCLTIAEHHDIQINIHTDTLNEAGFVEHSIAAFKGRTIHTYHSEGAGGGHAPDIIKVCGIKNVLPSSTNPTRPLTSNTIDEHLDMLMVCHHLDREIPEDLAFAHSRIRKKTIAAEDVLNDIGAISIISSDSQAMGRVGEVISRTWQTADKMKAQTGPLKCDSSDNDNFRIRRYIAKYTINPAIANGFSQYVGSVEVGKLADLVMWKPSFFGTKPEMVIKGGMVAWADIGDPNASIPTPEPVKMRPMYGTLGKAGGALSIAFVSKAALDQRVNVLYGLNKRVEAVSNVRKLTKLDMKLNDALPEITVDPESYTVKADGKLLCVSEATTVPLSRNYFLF
T1 sequence (P69996 whole entry): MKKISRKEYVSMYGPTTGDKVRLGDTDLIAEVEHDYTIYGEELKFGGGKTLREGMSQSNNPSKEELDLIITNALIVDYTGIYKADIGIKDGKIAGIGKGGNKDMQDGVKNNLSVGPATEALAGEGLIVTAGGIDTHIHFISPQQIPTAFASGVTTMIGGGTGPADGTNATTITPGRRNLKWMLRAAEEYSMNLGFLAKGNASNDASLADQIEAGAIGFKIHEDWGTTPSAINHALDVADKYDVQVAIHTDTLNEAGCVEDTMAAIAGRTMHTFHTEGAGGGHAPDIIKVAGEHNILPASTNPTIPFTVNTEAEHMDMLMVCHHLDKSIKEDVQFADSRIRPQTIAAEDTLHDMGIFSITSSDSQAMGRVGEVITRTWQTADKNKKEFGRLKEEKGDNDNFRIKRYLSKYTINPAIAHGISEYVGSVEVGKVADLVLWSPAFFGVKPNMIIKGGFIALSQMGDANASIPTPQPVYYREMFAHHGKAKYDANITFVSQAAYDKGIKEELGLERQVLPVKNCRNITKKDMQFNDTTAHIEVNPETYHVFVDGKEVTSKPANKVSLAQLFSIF
T1 sequence (P14916 whole entry, further chain): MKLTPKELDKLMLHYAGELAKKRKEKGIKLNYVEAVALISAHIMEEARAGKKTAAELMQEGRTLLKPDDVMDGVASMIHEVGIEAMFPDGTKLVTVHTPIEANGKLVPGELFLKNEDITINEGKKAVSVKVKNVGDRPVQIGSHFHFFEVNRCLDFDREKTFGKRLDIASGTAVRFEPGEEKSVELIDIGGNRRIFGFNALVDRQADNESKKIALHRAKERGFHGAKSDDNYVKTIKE

SMILES | MIC (H. pylori strains) [µg/mL] | surviving bacteria, pH =1 (H. pylori cells (SS1); 100 μM compound) [CFU/mL] | surviving bacteria, pH =7.2 (H. pylori cells (SS1); 100 μM compound) | Inhibition rate, pH =1 (H. pylori cells (SS1); [1]) | Inhibition rate, pH =7.2 (H. pylori cells (SS1); [2]) | inhibition at 100 µM (H. pylori cells (SS1); [3]) [%] | inhibition at 100 µM (H. pylori cells (SS1); [4]) [%] | inhibitory activity against urease (urease) | surviving bacteria, pH =1 (H. pylori cells (SS1); 5 mM compound) [CFU/mL] | surviving bacteria, pH =7.2 (H. pylori cells (SS1); 5 mM compound) | Inhibition rate, pH =1 (H. pylori cells (SS1); 5 mM compound, pH 1, 5 mM urea) [%] | Inhibition rate, pH =7.2 (H. pylori cells (SS1); 5 mM compound, pH 7.2, 5 mM urea) [%] | IC50 (H. pylori urease (HPU)) [µM] | IC50 (jack bean urease (JBU)) [µM]
COc1ccc2cc3[n+](cc2c1OC)CCc1cc2c(cc1-3)OCO2 [Berberine] | 50 | 587 ± 103 | 1.2 ± 0.4 ×10^4 CFU/mL | failed to inhibit | failed to inhibit | 0 | 0 | fails to show any inhibitory activity |  |  |  |  |  | 
Cc1ncc([N+](=O)[O-])n1CCO [MET, Metronidazole, reference compound] | 0.5 (≈ 2.92 µM) |  |  |  |  |  |  |  |  |  |  |  |  | 
COc1cc2c(cc1OC)-c1cc3ccc(OC)c(OC)c3c[n+]1CC2 [Palmatine] | 100 | 628 ± 110 | 1.2 ± 0.4 ×10^4 CFU/mL | failed to inhibit | failed to inhibit | 0 | 0 |  |  |  |  |  |  | 
CC(=O)NO [Acetohydroxamic acid, reference compound] |  |  |  |  |  |  |  |  | 0 ± 0 | 1.7 ± 0.4 ×10^4 CFU/mL | 100 | 0 | 90 ± 10 | 20 ± 10
COc1cc2c(cc1OC)-c1cc3ccc4c(c3c[n+]1CC2)OCO4 [Epiberberine] | 100 | 481 ± 92 | 1.3 ± 0.3 ×10^4 CFU/mL | failed to inhibit | failed to inhibit | 0 | 0 |  |  |  |  |  |  | 
COc1cc2c(cc1O)CC[n+]1cc3c(OC)c(OC)ccc3cc1-2 [Jatrorrhizine] | 100 | 552 ± 98 | 1.2 ± 0.3 ×10^4 CFU/mL | failed to inhibit | failed to inhibit | 0 | 0 |  |  |  |  |  |  | 
CC[C@H]1OC(=O)[C@H](C)[C@@H](O[C@H]2C[C@@](C)(OC)[C@@H](O)[C@H](C)O2)[C@H](C)[C@@H](O[C@@H]2O[C@H](C)C[C@H](N(C)C)[C@H]2O)[C@](C)(OC)C[C@@H](C)C(=O)[C@H](C)[C@@H](O)[C@]1(C)O [CLR, Clarithromycin, reference compound] | 0.02 (≈ 0.0267 µM) |  |  |  |  |  |  |  |  |  |  |  |  | 
